Counter-ions that a name gives are not always drawn. Like-named read-outs stand apart in the source and are kept apart here.
Legend:
Test in all cases: AK assay 384-well format, Prestwick library screening
[1] = test system: K. pneumoniae; assay type: cell-based, Klebsiella pneumoniae; settings: 50 μM final drug concentration; for fold induction at 50 µM: Klebsiella pneumoniae, 3 h
[2] = test system: S. aureus strain USA300-0114; assay type: cell-based, Staphylococcus aureus; settings: 50 μM final drug concentration; for fold induction at 50 µM: Staphylococcus aureus, USA300, 3 h
[3] = test system: A. baumannii strain 98-37-09; assay type: cell-based, Acinetobacter baumannii; settings: 50 μM final drug concentration; for fold induction at 50 µM: Acinetobacter baumannii, 983709, 3 h
[4] = test system: E. cloacae; assay type: cell-based, Enterobacter cloacae; settings: 50 μM final drug concentration; for fold induction at 50 µM: Enterobacter cloacae, 3 h
[5] = test system: E. coli; assay type: cell-based, Escherichia coli; settings: 50 μM final drug concentration; for fold induction at 50 µM: Escherichia coli, 3 h
[6] = test system: P. aeruginosa; assay type: cell-based, Pseudomonas aeruginosa; settings: 50 μM final drug concentration; for fold induction at 50 µM: Pseudomonas aeruginosa, 3 h
[7] = test system: E. faecium; assay type: cell-based, Enterococcus faecium; settings: 50 μM final drug concentration; for fold induction at 50 µM: Enterococcus faecium, 3 h
[8] = 384-well format, cutoff for positive-scoring molecules 3-fold increase, read-out: AK-based Prestwick Library Screening Results, K. pneumoniae (increase in extracellular AK activity)
[9] = 384-well format, cutoff for positive-scoring molecules 3-fold increase, read-out: AK-based Prestwick Library Screening Results, S. aureus (increase in extracellular AK activity)
[10] = 384-well format, cutoff for positive-scoring molecules 3-fold increase, read-out: AK-based Prestwick Library Screening Results, A. baumannii (increase in extracellular AK activity)
[11] = 384-well format, cutoff for positive-scoring molecules 3-fold increase, read-out: AK-based Prestwick Library Screening Results, E. cloacae (increase in extracellular AK activity)
[12] = 384-well format, cutoff for positive-scoring molecules 3-fold increase, read-out: AK-based Prestwick Library Screening Results, E. coli (increase in extracellular AK activity)
[13] = 384-well format, cutoff for positive-scoring molecules 3-fold increase, read-out: AK-based Prestwick Library Screening Results, P. aeruginosa (increase in extracellular AK activity)
[14] = 384-well format, cutoff for positive-scoring molecules 3-fold increase, read-out: AK-based Prestwick Library Screening Results, E. faecium (increase in extracellular AK activity)
[15] = planktonic, cutoff for positive 3-fold increase
[16] = 384-well format, cutoff for positive-scoring molecules 3-fold increase

With `O=C1CN(/N=C/c2ccc([N+](=O)[O-])o2)C(=O)N1` [Nitrofurantoin] as the compound, how does the fold induction at 50 µM [1, 8] read?
The fold induction at 50 µM was 0.8.

And the fold induction at 50 µM [2, 9]?
Its fold induction at 50 µM is 0.4.

What about the fold induction at 50 µM [3, 10] of the same compound?
The fold induction at 50 µM was 0.5.

What about the fold induction at 50 µM [4, 11] of the same compound?
Its fold induction at 50 µM is 0.6.

And the fold induction at 50 µM [5, 12]?
Its fold induction at 50 µM is 0.4.

What about the fold induction at 50 µM [6, 13] of the same compound?
The fold induction at 50 µM was 0.4.

What about the fold induction at 50 µM [7, 14] of the same compound?
Its fold induction at 50 µM is 1.

`CN1CCC(OC(c2ccccc2)c2ccccc2)CC1` [Diphenylpyraline hydrochloride] was tested. Which fold induction at 50 µM ([1]; cutoff for positive-scoring molecules 3-fold increase, read-out: AK-based Prestwick Library Screening Results, K. pneumoniae (fold increase in extracellular AK activity)) did it give?
Its fold induction at 50 µM is 1.

What about the fold induction at 50 µM ([2]; cutoff for positive-scoring molecules 3-fold increase, read-out: AK-based Prestwick Library Screening Results, S. aureus (fold increase in extracellular AK activity)) of the same compound?
Its fold induction at 50 µM is 1.2.

And the fold induction at 50 µM ([3]; cutoff for positive-scoring molecules 3-fold increase, read-out: AK-based Prestwick Library Screening Results, A. baumannii (fold increase in extracellular AK activity))?
Its fold induction at 50 µM is 1.3.

And the fold induction at 50 µM ([4]; cutoff for positive-scoring molecules 3-fold increase, read-out: AK-based Prestwick Library Screening Results, E. cloacae (fold increase in extracellular AK activity))?
The fold induction at 50 µM was 1.4.

What about the fold induction at 50 µM ([5]; cutoff for positive-scoring molecules 3-fold increase, read-out: AK-based Prestwick Library Screening Results, E. coli (fold increase in extracellular AK activity)) of the same compound?
The fold induction at 50 µM was 1.3.

And the fold induction at 50 µM ([6]; cutoff for positive-scoring molecules 3-fold increase, read-out: AK-based Prestwick Library Screening Results, P. aeruginosa (fold increase in extracellular AK activity))?
The fold induction at 50 µM was 1.1.

And the fold induction at 50 µM ([7]; cutoff for positive-scoring molecules 3-fold increase, read-out: AK-based Prestwick Library Screening Results, E. faecium (fold increase in extracellular AK activity))?
Its fold induction at 50 µM is 1.1.

Which results are given for `CN1CCc2cc3c(cc2C1O)OCO3` (stereo not drawn) [Hydrastinine hydrochloride]?
fold induction at 50 µM [1, 8]: 0.8; fold induction at 50 µM [2, 9]: 0.7; fold induction at 50 µM [3, 10]: 0.9; fold induction at 50 µM [4, 11]: 1.2; fold induction at 50 µM [5, 12]: 1; fold induction at 50 µM [6, 13]: 0.9; fold induction at 50 µM [7, 14]: 0.9

With `CN1CCc2cc3c(cc2[C@H]1[C@@H]1OC(=O)c2c1ccc1c2OCO1)OCO3` [Bicuculline (+)] as the compound, how does the “AK-based Prestwick Library Screening Results, K. pneumoniae (increase in extracellular AK activity)” value ([1]; planktonic K. pneumoniae, […]) read?
Its value is 0.8.

And the “AK-based Prestwick Library Screening Results, S. aureus (increase in extracellular AK activity)” value ([2]; planktonic S. aureus, […])?
Its value is 0.6.

What about the “AK-based Prestwick Library Screening Results, A. baumannii (increase in extracellular AK activity)” value ([3]; planktonic A. baumannii, […]) of the same compound?
The value was 0.8.

What about the “AK-based Prestwick Library Screening Results, E. cloacae (increase in extracellular AK activity)” value ([4]; planktonic E. cloacae, […]) of the same compound?
The value was 0.9.

What about the “AK-based Prestwick Library Screening Results, E. coli (increase in extracellular AK activity)” value ([5]; planktonic E. coli, […]) of the same compound?
The value was 0.8.

What about the “AK-based Prestwick Library Screening Results, P. aeruginosa (increase in extracellular AK activity)” value ([6]; planktonic P. aeruginosa, […]) of the same compound?
The value was 0.9.

What about the “AK-based Prestwick Library Screening Results, E. faecium (increase in extracellular AK activity)” value ([7]; planktonic E. faecium, […]) of the same compound?
The value was 0.9.

Which fold induction at 50 µM ([1]; planktonic K. pneumoniae, positive cutoff 3-fold increase, read-out: AK-based Prestwick library screening result, K. pneumoniae (fold increase in extracellular AK activity)) does the source give for `[H]/N=C(\N/C(=N/[H])Nc1ccc(Cl)cc1)NC(C)C` [Proguanil hydrochloride] here?
The fold induction at 50 µM was 0.7.

What about the fold induction at 50 µM ([2]; planktonic S. aureus, positive cutoff 3-fold increase, read-out: AK-based Prestwick library screening result, S. aureus (fold increase in extracellular AK activity)) of the same compound?
Its fold induction at 50 µM is 0.9.

What about the fold induction at 50 µM ([3]; planktonic A. baumannii, positive cutoff 3-fold increase, read-out: AK-based Prestwick library screening result, A. baumannii (fold increase in extracellular AK activity)) of the same compound?
The fold induction at 50 µM was 0.9.

What about the fold induction at 50 µM ([4]; planktonic E. cloacae, positive cutoff 3-fold increase, read-out: AK-based Prestwick library screening result, E. cloacae (fold increase in extracellular AK activity)) of the same compound?
The fold induction at 50 µM was 1.1.

What about the fold induction at 50 µM ([5]; planktonic E. coli, positive cutoff 3-fold increase, read-out: AK-based Prestwick library screening result, E. coli (fold increase in extracellular AK activity)) of the same compound?
Its fold induction at 50 µM is 0.9.

What about the fold induction at 50 µM ([6]; planktonic P. aeruginosa, positive cutoff 3-fold increase, read-out: AK-based Prestwick library screening result, P. aeruginosa (fold increase in extracellular AK activity)) of the same compound?
The fold induction at 50 µM was 0.8.

What about the fold induction at 50 µM ([7]; planktonic E. faecium, positive cutoff 3-fold increase, read-out: AK-based Prestwick library screening result, E. faecium (fold increase in extracellular AK activity)) of the same compound?
The fold induction at 50 µM was 0.8.

`Oc1cc(O)c2c(c1)O[C@H](c1ccc(O)c(O)c1)[C@H](O)C2` [Epicatechin-(−)] was tested. Which “AK-based Prestwick Library Screening Results, K. pneumoniae (fold increase in extracellular AK activity)” value [1, 15] did it give?
The value was 0.4.

And the “AK-based Prestwick Library Screening Results, S. aureus (fold increase in extracellular AK activity)” value [2, 15]?
The value was 0.3.

What about the “AK-based Prestwick Library Screening Results, A. baumannii (fold increase in extracellular AK activity)” value [3, 15] of the same compound?
Its value is 0.3.

What about the “AK-based Prestwick Library Screening Results, E. cloacae (fold increase in extracellular AK activity)” value [4, 15] of the same compound?
Its value is 0.3.

And the “AK-based Prestwick Library Screening Results, E. coli (fold increase in extracellular AK activity)” value [5, 15]?
The value was 0.4.

And the “AK-based Prestwick Library Screening Results, P. aeruginosa (fold increase in extracellular AK activity)” value [6, 15]?
Its value is 0.3.

And the “AK-based Prestwick Library Screening Results, E. faecium (fold increase in extracellular AK activity)” value [7, 15]?
The value was 0.9.

For `COc1cc2nc(N(C)CCCNC(=O)C3CCCO3)nc(N)c2cc1OC` (stereo not drawn) [Alfuzosin hydrochloride], which fold induction at 50 µM ([1]; planktonic K. pneumoniae, 384-well, cutoff for positive-scoring molecules 3-fold increase, read-out: AK-based Prestwick Library Screening Results: K. pneumoniae (increase in extracellular AK activity)) is on record?
Its fold induction at 50 µM is 0.4.

And the fold induction at 50 µM ([2]; planktonic S. aureus, 384-well, cutoff for positive-scoring molecules 3-fold increase, read-out: AK-based Prestwick Library Screening Results: S. aureus (increase in extracellular AK activity))?
The fold induction at 50 µM was 0.3.

What about the fold induction at 50 µM ([3]; planktonic A. baumannii, 384-well, cutoff for positive-scoring molecules 3-fold increase, read-out: AK-based Prestwick Library Screening Results: A. baumannii (increase in extracellular AK activity)) of the same compound?
Its fold induction at 50 µM is 0.4.

And the fold induction at 50 µM ([4]; planktonic E. cloacae, 384-well, cutoff for positive-scoring molecules 3-fold increase, read-out: AK-based Prestwick Library Screening Results: E. cloacae (increase in extracellular AK activity))?
Its fold induction at 50 µM is 0.4.

And the fold induction at 50 µM ([5]; planktonic E. coli, 384-well, cutoff for positive-scoring molecules 3-fold increase, read-out: AK-based Prestwick Library Screening Results: E. coli (increase in extracellular AK activity))?
The fold induction at 50 µM was 0.5.

What about the fold induction at 50 µM ([6]; planktonic P. aeruginosa, 384-well, cutoff for positive-scoring molecules 3-fold increase, read-out: AK-based Prestwick Library Screening Results: P. aeruginosa (increase in extracellular AK activity)) of the same compound?
The fold induction at 50 µM was 0.4.

What about the fold induction at 50 µM ([7]; planktonic E. faecium, 384-well, cutoff for positive-scoring molecules 3-fold increase, read-out: AK-based Prestwick Library Screening Results: E. faecium (increase in extracellular AK activity)) of the same compound?
Its fold induction at 50 µM is 0.9.

Which fold induction at 50 µM ([1]; planktonic K. pneumoniae, cutoff for positive-scoring molecules 3-fold increase, read-out: AK-based Prestwick Library Screening Results, K. pneumoniae (increase in extracellular AK activity)) does the source give for `O=C(O)c1cc(/N=N/c2ccc(S(=O)(=O)Nc3ccccn3)cc2)ccc1O` [Sulfasalazine] here?
The fold induction at 50 µM was 0.7.

And the fold induction at 50 µM ([2]; planktonic S. aureus, cutoff for positive-scoring molecules 3-fold increase, read-out: AK-based Prestwick Library Screening Results, S. aureus (increase in extracellular AK activity))?
The fold induction at 50 µM was 0.8.

What about the fold induction at 50 µM ([3]; planktonic A. baumannii, cutoff for positive-scoring molecules 3-fold increase, read-out: AK-based Prestwick Library Screening Results, A. baumannii (increase in extracellular AK activity)) of the same compound?
The fold induction at 50 µM was 1.1.

What about the fold induction at 50 µM ([4]; planktonic E. cloacae, cutoff for positive-scoring molecules 3-fold increase, read-out: AK-based Prestwick Library Screening Results, E. cloacae (increase in extracellular AK activity)) of the same compound?
The fold induction at 50 µM was 1.1.

And the fold induction at 50 µM ([5]; planktonic E. coli, cutoff for positive-scoring molecules 3-fold increase, read-out: AK-based Prestwick Library Screening Results, E. coli (increase in extracellular AK activity))?
Its fold induction at 50 µM is 0.8.

What about the fold induction at 50 µM ([6]; planktonic P. aeruginosa, cutoff for positive-scoring molecules 3-fold increase, read-out: AK-based Prestwick Library Screening Results, P. aeruginosa (increase in extracellular AK activity)) of the same compound?
Its fold induction at 50 µM is 0.8.

And the fold induction at 50 µM ([7]; planktonic E. faecium, cutoff for positive-scoring molecules 3-fold increase, read-out: AK-based Prestwick Library Screening Results, E. faecium (increase in extracellular AK activity))?
Its fold induction at 50 µM is 0.9.

`CC(=O)[N-]S(=O)(=O)c1ccc(N)cc1.O.[Na+]` [Sulfacetamide sodic hydrate] was tested. Which “AK-based Prestwick Library Screening Results, K. pneumoniae (increase in extracellular AK activity)” value [1, 16] did it give?
The value was 0.5.

And the “AK-based Prestwick Library Screening Results, S. aureus (increase in extracellular AK activity)” value [2, 16]?
The value was 0.7.

What about the “AK-based Prestwick Library Screening Results, A. baumannii (increase in extracellular AK activity)” value [3, 16] of the same compound?
Its value is 2.2.

And the “AK-based Prestwick Library Screening Results, E. cloacae (increase in extracellular AK activity)” value [4, 16]?
The value was 0.7.

What about the “AK-based Prestwick Library Screening Results, E. coli (increase in extracellular AK activity)” value [5, 16] of the same compound?
The value was 0.6.

What about the “AK-based Prestwick Library Screening Results, P. aeruginosa (increase in extracellular AK activity)” value [6, 16] of the same compound?
Its value is 0.5.

What about the “AK-based Prestwick Library Screening Results, E. faecium (increase in extracellular AK activity)” value [7, 16] of the same compound?
The value was 0.9.
